Measurements from ChEMBL document CHEMBL4706524, “Discovery of sulfonyl hydrazone derivative as a new selective PDE4A and PDE4D inhibitor by lead-optimization approach on the prototype LASSBio-448: In vitro and in vivo preclinical studies” (Eur J Med Chem, 2020).

Assays:
[1] = pampa, 8 h
[2] = in vitro; conditions: PAMPA
[3] = in vitro; conditions: PAMPA; remark: listed apart in the source
Description: Permeability of the compound incubated for 165 mins by PAMPA-BBB assay

[4] = in vitro; conditions: PAMPA; remark: listed apart in the source
Description: Permeability of the compound by PAMPA-TGI assay

[5] = test system: Mus musculus; experiment: Antiinflammatory activity against A/J mouse assessed as decrease in LPS-induced TNFalpha production in lungs at 6.25 umol/kg, po treated via gavage for 1 hr before LPS stimulation and measured after 24 hrs by ELISA relative to control; type: functional; conditions: 25 h
[6] = molecular target: T1, 3',5'-cyclic-AMP phosphodiesterase 4D (Homo sapiens, UniProt Q08499); experiment: Inhibition of human recombinant PDE4D3 using FAM-cAMP as substrate measured after 1 hr by IMAP TR-FRET assay
T1 sequence (Q08499 whole entry): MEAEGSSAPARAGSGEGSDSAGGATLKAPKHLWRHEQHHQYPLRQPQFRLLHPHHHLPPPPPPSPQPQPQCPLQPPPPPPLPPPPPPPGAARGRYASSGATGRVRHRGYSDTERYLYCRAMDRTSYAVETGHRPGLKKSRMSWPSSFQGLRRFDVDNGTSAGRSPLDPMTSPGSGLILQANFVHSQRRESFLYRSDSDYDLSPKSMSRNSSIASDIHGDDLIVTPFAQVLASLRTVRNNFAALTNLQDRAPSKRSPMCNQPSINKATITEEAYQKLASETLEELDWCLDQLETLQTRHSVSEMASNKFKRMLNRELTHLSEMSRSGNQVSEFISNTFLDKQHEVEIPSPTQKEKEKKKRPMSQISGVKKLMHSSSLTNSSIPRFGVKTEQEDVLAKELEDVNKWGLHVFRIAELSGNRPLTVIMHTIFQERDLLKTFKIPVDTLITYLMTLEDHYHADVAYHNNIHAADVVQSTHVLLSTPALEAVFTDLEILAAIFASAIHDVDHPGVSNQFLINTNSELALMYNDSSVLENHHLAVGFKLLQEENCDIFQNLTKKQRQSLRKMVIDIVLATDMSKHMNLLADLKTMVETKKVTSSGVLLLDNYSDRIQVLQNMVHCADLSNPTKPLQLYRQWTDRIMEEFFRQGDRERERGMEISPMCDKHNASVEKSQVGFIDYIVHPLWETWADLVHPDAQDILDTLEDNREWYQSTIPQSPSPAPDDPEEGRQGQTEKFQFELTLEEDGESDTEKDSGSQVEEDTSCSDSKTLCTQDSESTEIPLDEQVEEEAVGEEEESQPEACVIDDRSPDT

[7] = organism: Homo sapiens; experiment: Inhibition of human recombinant PDE4A1A using FAM-cAMP as substrate at 10 uM measured after 1 hr by IMAP TR-FRET assay
[8] = Chemical stability of the compound in phosphate buffer at pH 7.4 measured upto 120 mins by HPLC-DAD analysis; type: physicochemical; conditions: pH 7.4, 2 h
[9] = molecular target: T2, 3',5'-cyclic-AMP phosphodiesterase 4C (Homo sapiens, UniProt Q08493); experiment: Inhibition of human recombinant PDE4C using FAM-cAMP as substrate at 10 uM measured after 1 hr by IMAP TR-FRET assay
T2 sequence (Q08493 whole entry): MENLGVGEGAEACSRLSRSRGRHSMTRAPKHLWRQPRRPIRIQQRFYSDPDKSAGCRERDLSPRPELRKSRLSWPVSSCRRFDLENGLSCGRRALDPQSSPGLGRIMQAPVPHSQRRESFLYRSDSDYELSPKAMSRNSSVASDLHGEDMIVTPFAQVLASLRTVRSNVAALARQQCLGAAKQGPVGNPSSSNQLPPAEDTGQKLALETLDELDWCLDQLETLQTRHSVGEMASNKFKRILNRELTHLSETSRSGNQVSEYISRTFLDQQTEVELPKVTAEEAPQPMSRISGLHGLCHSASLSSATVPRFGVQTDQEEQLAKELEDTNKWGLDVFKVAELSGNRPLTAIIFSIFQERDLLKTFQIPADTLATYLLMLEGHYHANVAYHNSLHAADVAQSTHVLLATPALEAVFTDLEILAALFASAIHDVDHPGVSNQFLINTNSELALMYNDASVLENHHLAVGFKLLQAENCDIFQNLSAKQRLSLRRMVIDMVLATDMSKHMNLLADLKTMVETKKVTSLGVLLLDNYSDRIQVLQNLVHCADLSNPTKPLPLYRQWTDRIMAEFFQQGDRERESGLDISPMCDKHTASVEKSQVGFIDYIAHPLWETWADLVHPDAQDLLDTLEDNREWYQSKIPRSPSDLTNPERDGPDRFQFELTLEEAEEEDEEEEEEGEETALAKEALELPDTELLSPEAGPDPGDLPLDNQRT

[10] = molecular target: T1, 3',5'-cyclic-AMP phosphodiesterase 4D; experiment: Inhibition of human recombinant PDE4D3 using FAM-cAMP as substrate measured after 1 hr by IMAP TR-FRET assay relative to control
[11] = test system: Mus musculus; experiment: Antiinflammatory activity against A/J mouse assessed as decrease in LPS-induced airway hyperreactivity at 25 umol/kg, po treated via gavage for 1 hr before LPS stimulation measured after 24 hrs by whole body plethysmography relative to control; type: functional; conditions: 25 h
[12] = Chemical stability of the compound in KCl/HCl buffer at pH 2.0 measured upto 120 mins by HPLC-DAD analysis; conditions: pH 2, 2 h
[13] = molecular target: T1, 3',5'-cyclic-AMP phosphodiesterase 4D; experiment: Inhibition of human recombinant PDE4D3 using FAM-cAMP as substrate at 10 uM measured after 1 hr by IMAP TR-FRET assay
[14] = test system: Mus musculus; experiment: Antiinflammatory activity against A/J mouse assessed as decrease in LPS-induced TNFalpha production in lungs at 25 umol/kg, po treated via gavage for 1 hr before LPS stimulation and measured after 24 hrs by ELISA relative to control; type: functional; conditions: 25 h
[15] = organism: Homo sapiens; experiment: Inhibition of human recombinant PDE4A1A using FAM-cAMP as substrate measured after 1 hr by IMAP TR-FRET assay relative to control
[16] = molecular target: T3, 3',5'-cyclic-AMP phosphodiesterase 4B (Homo sapiens, UniProt Q07343); experiment: Inhibition of human recombinant PDE4B1 using FAM-cAMP as substrate at 10 uM measured after 1 hr by IMAP TR-FRET assay
T3 sequence (Q07343 whole entry): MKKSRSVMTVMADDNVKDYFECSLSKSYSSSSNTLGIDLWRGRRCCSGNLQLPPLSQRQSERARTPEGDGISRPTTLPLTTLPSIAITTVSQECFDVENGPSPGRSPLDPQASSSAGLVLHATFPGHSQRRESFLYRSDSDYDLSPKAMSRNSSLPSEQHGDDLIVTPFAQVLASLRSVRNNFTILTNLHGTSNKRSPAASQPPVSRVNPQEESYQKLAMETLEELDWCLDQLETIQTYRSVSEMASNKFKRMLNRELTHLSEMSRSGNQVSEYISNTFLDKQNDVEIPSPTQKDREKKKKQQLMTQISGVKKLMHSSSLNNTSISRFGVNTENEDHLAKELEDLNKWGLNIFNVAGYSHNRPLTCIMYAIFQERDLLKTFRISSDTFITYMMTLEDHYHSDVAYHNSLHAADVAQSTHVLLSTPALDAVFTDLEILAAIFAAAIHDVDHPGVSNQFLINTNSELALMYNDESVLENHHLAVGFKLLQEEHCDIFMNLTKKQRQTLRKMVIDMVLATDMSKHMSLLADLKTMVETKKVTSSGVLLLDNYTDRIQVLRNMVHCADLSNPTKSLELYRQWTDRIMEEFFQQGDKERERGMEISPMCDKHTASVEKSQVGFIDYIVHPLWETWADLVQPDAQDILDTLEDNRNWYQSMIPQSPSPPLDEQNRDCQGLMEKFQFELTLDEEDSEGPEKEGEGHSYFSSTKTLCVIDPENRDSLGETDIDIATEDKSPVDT

[17] = test system: Mus musculus; experiment: Antiinflammatory activity against A/J mouse assessed as decrease in LPS-induced airway hyperreactivity at 6.25 umol/kg, po treated via gavage for 1 hr before LPS stimulation measured after 24 hrs by whole body plethysmography relative to control; type: functional; conditions: 25 h
[18] = test system: Trachea; experiment: […] activity in OVA-sensitized guinea pig-derived trachea assessed as decrease in CCh-induced tracheal tonic contraction in presence of functional epithelium treated with compound after contraction stabilised; type: tissue-based; conditions: Cavia porcellus
[19] = test system: Trachea; experiment: […] activity in non-sensitized guinea pig-derived trachea assessed as decrease in CCh-induced tracheal tonic contraction in absence of functional epithelium treated with compound after contraction stabilised; type: tissue-based; conditions: Cavia porcellus
[20] = test system: Trachea; experiment: […] activity in OVA-sensitized guinea pig-derived trachea assessed as decrease in CCh-induced tracheal tonic contraction in absence of functional epithelium treated with compound after contraction stabilised; type: tissue-based; conditions: Cavia porcellus
[21] = test system: Trachea; experiment: […] activity in non-sensitized guinea pig-derived trachea assessed as decrease in CCh-induced tracheal tonic contraction in presence of functional epithelium; type: tissue-based; conditions: Cavia porcellus
[22] = molecular target: T2, 3',5'-cyclic-AMP phosphodiesterase 4C
Description: Inhibition of PDE4C (unknown origin)

[23] = molecular target: T3, 3',5'-cyclic-AMP phosphodiesterase 4B; experiment: Inhibition of PDE4B (unknown origin)
[24] = molecular target: T1, 3',5'-cyclic-AMP phosphodiesterase 4D
Description: Inhibition of PDE4D (unknown origin)

[25] = molecular target: 3',5'-cyclic-AMP phosphodiesterase 4A (Homo sapiens, UniProt P27815); experiment: Inhibition of PDE4A (unknown origin)
Sequence of 3',5'-cyclic-AMP phosphodiesterase 4A (P27815 whole entry): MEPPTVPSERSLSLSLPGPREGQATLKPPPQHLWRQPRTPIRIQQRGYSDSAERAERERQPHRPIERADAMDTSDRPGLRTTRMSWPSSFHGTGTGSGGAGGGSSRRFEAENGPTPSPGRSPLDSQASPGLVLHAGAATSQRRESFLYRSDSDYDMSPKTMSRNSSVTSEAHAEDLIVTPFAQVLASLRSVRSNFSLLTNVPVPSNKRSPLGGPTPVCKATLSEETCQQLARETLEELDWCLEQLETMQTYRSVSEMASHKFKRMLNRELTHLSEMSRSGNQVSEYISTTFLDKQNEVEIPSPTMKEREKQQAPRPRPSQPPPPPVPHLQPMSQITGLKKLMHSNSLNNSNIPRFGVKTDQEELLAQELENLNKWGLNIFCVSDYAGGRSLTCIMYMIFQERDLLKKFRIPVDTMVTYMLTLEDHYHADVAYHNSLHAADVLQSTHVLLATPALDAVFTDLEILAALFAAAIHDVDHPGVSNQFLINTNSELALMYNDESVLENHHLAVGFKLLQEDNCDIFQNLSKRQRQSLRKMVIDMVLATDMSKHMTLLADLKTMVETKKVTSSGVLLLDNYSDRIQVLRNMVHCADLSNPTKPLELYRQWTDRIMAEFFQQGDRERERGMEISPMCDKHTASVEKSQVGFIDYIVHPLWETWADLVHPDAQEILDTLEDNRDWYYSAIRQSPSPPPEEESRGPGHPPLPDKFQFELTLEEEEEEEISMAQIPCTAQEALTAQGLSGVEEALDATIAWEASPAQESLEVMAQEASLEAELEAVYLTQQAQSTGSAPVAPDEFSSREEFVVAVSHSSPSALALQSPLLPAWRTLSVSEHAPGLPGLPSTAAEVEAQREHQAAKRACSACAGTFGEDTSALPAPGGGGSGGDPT

[26] = Inhibition of human recombinant PDE4A1A using FAM-cAMP as substrate measured after 1 hr by IMAP TR-FRET assay
[27] = test system: Mus musculus; experiment: Antiinflammatory activity against A/J mouse assessed as decrease in LPS-induced TNFalpha production in lungs at 3 umol/kg, po treated via gavage for 1 hr before LPS stimulation and measured after 24 hrs by ELISA relative to control; type: functional; conditions: 25 h
[28] = test system: Mus musculus; experiment: Antiinflammatory activity against A/J mouse assessed as decrease in LPS-induced airway hyperreactivity at 3 umol/kg, po treated via gavage for 1 hr before LPS stimulation measured after 24 hrs by whole body plethysmography relative to control; type: functional; conditions: 25 h

SMILES: CNC(=C[N+](=O)[O-])NCCSCc1ccc(CN(C)C)o1 [RANITIDINE]
- Drug absorption [1]: 13.48%

SMILES: Nc1nc2c(ncn2COCCO)c(=O)[nH]1 [ACYCLOVIR]
- Papp at 8 h [2]: 0.08 ×10⁻⁶ cm/s

SMILES: O=C(Nc1c(Cl)cncc1Cl)c1ccc(OC(F)F)c(OCC2CC2)c1 [ROFLUMILAST]
- Papp at 2.75 h [3]: 8.05 ×10⁻⁶ cm/s
- Papp at 8 h [2]: 5.28 ×10⁻⁶ cm/s
- Drug absorption [1]: 86.58%

SMILES: CC(=O)Oc1ccccc1C(=O)O [ASPIRIN]
- Papp [4]: 3.8 ×10⁻⁶ cm/s
- Papp at 8 h [2]: 1.69 ×10⁻⁶ cm/s
- Drug absorption [1]: 47.36%

SMILES: COc1ccc(CCN(C)S(=O)(=O)c2ccc(-c3ccccc3)cc2)cc1OC
- inhibition in vivo at 6.25 µmol/kg [5]: 22.2%
- IC50 [6]: 20800 nM
- inhibition [7]: 46.8%
- Stabilty [8]: Stable
- inhibition [9]: 26.6%
- Emax [10]: 60%
- inhibition in vivo at 25 µmol/kg [11]: 80%
- Stabilty [12]: Stable
- inhibition [13]: 56.3%
- inhibition in vivo at 25 µmol/kg [14]: 55.1%
- Emax [15]: 65%
- inhibition [16]: 7.1%
- inhibition in vivo at 6.25 µmol/kg [17]: 95%

SMILES: COc1ccc(C2CNC(=O)C2)cc1OC1CCCC1 (stereo not given) [ROLIPRAM]
- EC50 [18]: 31.6 nM
- EC50 [19]: 64.6 nM
- EC50 [20]: 69.2 nM
- EC50 [21]: 26.3 nM

SMILES: O=C(O)c1cc(/N=N/c2ccc(S(=O)(=O)Nc3ccccn3)cc2)ccc1O [SULFASALAZINE]
- Papp [4]: 0.3 ×10⁻⁶ cm/s
- Papp at 8 h [2]: 0.45 ×10⁻⁶ cm/s

SMILES: C[C@@H](Oc1ccc(CNC(=O)c2cccnc2Oc2ccc3c(c2)OCO3)c(F)c1)C(=O)O
- IC50 [22]: 3860 nM
- IC50 [23]: 287 nM
- IC50 [24]: 3 nM
- IC50 [25]: 310 nM

SMILES: COc1ccc(/C=N/N(C)S(=O)(=O)c2cc3c(cc2C)OCO3)cc1OC
- inhibition in vivo at 6.25 µmol/kg [5]: 48.7%
- IC50 [6]: 700 nM
- inhibition [7]: 90.4%
- Stabilty [8]: Stable
- EC50 [18]: 6460 nM
- inhibition [9]: 25.5%
- Emax [10]: 93%
- EC50 [19]: 8130 nM
- EC50 [20]: 3160 nM
- IC50 [26]: 500 nM
- EC50 [21]: 8320 nM
- inhibition in vivo at 25 µmol/kg [11]: 97%
- Stabilty [12]: Unstable
- Papp at 8 h [2]: 13.1 ×10⁻⁶ cm/s
- inhibition [13]: 90.7%
- inhibition in vivo at 25 µmol/kg [14]: 85.9%
- Emax [15]: 100%
- inhibition [16]: 22.7%
- Drug absorption [1]: 99.3%
- inhibition in vivo at 6.25 µmol/kg [17]: 99%

SMILES: COc1ccc(CCNS(=O)(=O)c2cc3c(cc2C)OCO3)cc1OC
- inhibition [7]: 11.8%
- Stabilty [8]: Stable
- EC50 [18]: 24500 nM
- Papp at 2.75 h [3]: 3.46 ×10⁻⁶ cm/s
- inhibition [9]: 21.3%
- EC50 [19]: 43700 nM
- EC50 [20]: 25100 nM
- IC50 [26]: 700 nM
- EC50 [21]: 29500 nM
- Stabilty [12]: Stable
- inhibition [13]: < 5%
- inhibition [16]: < 5%

SMILES: C[C@]12C=CC(=O)C=C1CC[C@@H]1[C@@H]2C(=O)C[C@@]2(C)[C@H]1CC[C@]2(O)C(=O)CO [PREDNISONE]
- Papp at 8 h [2]: 3.09 ×10⁻⁶ cm/s

SMILES: O=c1ccc2ccccc2o1 [COUMARIN]
- Papp at 8 h [2]: 22.6 ×10⁻⁶ cm/s
- Drug absorption [1]: 99.98%

SMILES: COc1ccc(CCN(C)S(=O)(=O)c2ccc3ccccc3c2)cc1OC
- inhibition in vivo at 6.25 µmol/kg [5]: 0%
- IC50 [6]: 35300 nM
- inhibition [7]: 89.9%
- Stabilty [8]: Stable
- inhibition [9]: 30.1%
- Emax [10]: 63%
- IC50 [26]: 3000 nM
- inhibition in vivo at 25 µmol/kg [11]: 97%
- Stabilty [12]: Stable
- inhibition [13]: 50.1%
- inhibition in vivo at 25 µmol/kg [14]: 58.9%
- Emax [15]: 97%
- inhibition [16]: 12.2%
- inhibition in vivo at 6.25 µmol/kg [17]: 95%

SMILES: CC(=O)N1CCN(c2ccc(OCC3COC(Cn4ccnc4)(c4ccc(Cl)cc4Cl)O3)cc2)CC1 (stereo not given) [KETOCONAZOLE]
- Papp [4]: 3.3 ×10⁻⁶ cm/s
- Papp at 8 h [2]: 4.93 ×10⁻⁶ cm/s
- Drug absorption [1]: 84.68%

SMILES: O=C(O)Cc1ccccc1Nc1c(Cl)cccc1Cl [DICLOFENAC]
- Drug absorption [1]: 99.28%

SMILES: COc1ccc([C@]2(C#N)CC[C@@H](C(=O)O)CC2)cc1OC1CCCC1 [CILOMILAST]
- inhibition in vivo at 3 µmol/kg [27]: 98.9%
- inhibition [7]: 91.3%
- inhibition [9]: 98.5%
- Emax [10]: 99%
- IC50 [26]: 200 nM
- inhibition in vivo at 3 µmol/kg [28]: 94%
- Papp at 8 h [2]: 7.29 ×10⁻⁶ cm/s
- inhibition [13]: 98.8%
- Emax [15]: 99%
- inhibition [16]: 91.3%
- Drug absorption [1]: 93.74%
